Reference: PubChem BioAssay AID1259407 (Chemical Carcinogenesis Research Information System (CCRIS), 2018)
Calls of active or inactive are those of the source. No rule for the calls is given here.

Tested on: CCRIS mutagenicity, Ames/micronucleus/aberration tests
Assay: CCRIS mutagenicity studies
[1] = Test System: AMES SALMONELLA TYPHIMURIUM, Strain/Indicator: TA98, Metabolic Activation: NONE, Method: STANDARD PLATE
[2] = Test System: AMES SALMONELLA TYPHIMURIUM, Strain/Indicator: TA100, Metabolic Activation: NONE, Method: STANDARD PLATE
[3] = Test System: AMES SALMONELLA TYPHIMURIUM, Strain/Indicator: TA98, Metabolic Activation: NONE, Method: PREINCUBATION

`CCOP(=S)(OCC)SCn1c(=O)oc2cc(Cl)ccc21` was tested, and the mutagenic call (Test System: AMES SALMONELLA TYPHIMURIUM, Strain/Indicator: TA97A, Metabolic Activation: NONE, Method: STANDARD PLATE) was “inactive; negative”, the mutagenic call (Test System: AMES SALMONELLA TYPHIMURIUM, Strain/Indicator: TA97A, Metabolic Activation: RAT, CECAL CELL FREE EXTRACT, Method: STANDARD PLATE) was “inactive; negative” and the mutagenic call (Test System: AMES SALMONELLA TYPHIMURIUM, Strain/Indicator: TA97A, Metabolic Activation: RAT, LIVER, S-9, AROCLOR 1254, Method: STANDARD PLATE) was “inactive; negative”. For the same molecule, the mutagenic call [1] was “inactive; negative”, the mutagenic call (Test System: AMES SALMONELLA TYPHIMURIUM, Strain/Indicator: TA98, Metabolic Activation: RAT, CECAL CELL FREE EXTRACT, Method: STANDARD PLATE) was “inactive; negative” and the mutagenic call (Test System: AMES SALMONELLA TYPHIMURIUM, Strain/Indicator: TA98, Metabolic Activation: RAT, LIVER, S-9, AROCLOR 1254, Method: STANDARD PLATE) was “inactive; negative”. The mutagenic call [2] was “inactive; negative”, the mutagenic call (Test System: AMES SALMONELLA TYPHIMURIUM, Strain/Indicator: TA100, Metabolic Activation: RAT, CECAL CELL FREE EXTRACT, Method: STANDARD PLATE) was “inactive; negative” and the mutagenic call (Test System: AMES SALMONELLA TYPHIMURIUM, Strain/Indicator: TA100, Metabolic Activation: RAT, LIVER, S-9, AROCLOR 1254, Method: STANDARD PLATE) was “inactive; negative”.
In the case of `CC(Br)C(=O)NCc1ccc(Cl)cc1` (centres undefined), the mutagenic call (Test System: AMES SALMONELLA TYPHIMURIUM, Strain/Indicator: TA100, Metabolic Activation: MOUSE, LIVER, S-9, AROCLOR 1254, Method: STANDARD PLATE) is reported as “active; positive” and the mutagenic call [2] is reported as “active; positive”.
With `OCc1ccc2ccc3cccc4ccc1c2c34` the mutagenic call (Test System: AMES SALMONELLA TYPHIMURIUM, Strain/Indicator: TA98, Metabolic Activation: HUMAN, LIVER, CYTOSOL, PAPS, Method: PREINCUBATION) was “active; positive”, the mutagenic call [3] was “inactive; negative” and the mutagenic call (Test System: AMES SALMONELLA TYPHIMURIUM, Strain/Indicator: TA98, Metabolic Activation: RAT, LIVER, CYTOSOL, KCL, Method: PREINCUBATION) was “inactive; negative”. The mutagenic call (Test System: AMES SALMONELLA TYPHIMURIUM, Strain/Indicator: TA98, Metabolic Activation: RAT, LIVER, CYTOSOL, PAPS, KCL, Method: PREINCUBATION) was “active; positive”, the mutagenic call (Test System: AMES SALMONELLA TYPHIMURIUM, Strain/Indicator: TA98, Metabolic Activation: RAT, LIVER, CYTOSOL, PAPS, Method: PREINCUBATION) was “active; positive” and the mutagenic call (Test System: AMES SALMONELLA TYPHIMURIUM, Strain/Indicator: TA98, Metabolic Activation: RAT, LIVER, PAPS, KCL, Method: PREINCUBATION) was “inactive; negative”. The mutagenic call (Test System: AMES SALMONELLA TYPHIMURIUM, Strain/Indicator: TA98, Metabolic Activation: RAT, LIVER, S-9, NADPH, Method: PREINCUBATION) was “active; positive”, the mutagenic call (Test System: UDS CHINESE HAMSTER V-79 CELLS, Metabolic Activation: NONE, Method: AUTORADIOGRAPHY) was “active; positive” and the mutagenic call (Test System: UDS CHINESE HAMSTER V-79 CELLS, Strain/Indicator: V-79-MZ/CYTIDINE INCORPORATION, Metabolic Activation: NONE, Method: AUTORADIOGRAPHY) was “inactive; negative”. The mutagenic call (Test System: UDS CHINESE HAMSTER V-79 CELLS, Strain/Indicator: V-79-RHST20/CYTIDINE INCORPORATION, Metabolic Activation: NONE, Method: AUTORADIOGRAPHY) was “active; positive”, the mutagenic call (Test System: UDS CHINESE HAMSTER V-79 CELLS, Strain/Indicator: V-79-RHSTA/CYTIDINE INCORPORATION, Metabolic Activation: NONE, Method: AUTORADIOGRAPHY) was “active; positive” and the mutagenic call (Test System: UDS CHINESE HAMSTER V-79 CELLS, Strain/Indicator: V-79-RPST-IV/CYTIDINE INCORPORATION, Metabolic Activation: NONE, Method: AUTORADIOGRAPHY) was “active; positive”.
With `CC(=O)N(O)c1ccc(Oc2ccc(Cl)cc2)cc1` the mutagenic call (Test System: AMES SALMONELLA TYPHIMURIUM, Strain/Indicator: TA100, Metabolic Activation: GUINEA PIG, LIVER, MICROSOMAL FRACTION, PCB) was “active; positive”, the mutagenic call (Test System: AMES SALMONELLA TYPHIMURIUM, Strain/Indicator: TA100, Metabolic Activation: GUINEA PIG, LIVER, S-9, PCB) was “active; positive” and the mutagenic call (Test System: AMES SALMONELLA TYPHIMURIUM, Strain/Indicator: TA100, Metabolic Activation: GUINEA PIG, LIVER, S-105, PCB) was “active; positive”. The mutagenic call [2] was “inactive; negative” and the mutagenic call (Test System: AMES SALMONELLA TYPHIMURIUM, Strain/Indicator: TA100, Metabolic Activation: RAT, LIVER, S-9, KANECLOR 500, Method: STANDARD PLATE) was “active; positive”.
With `[CH3][Pb]([CH3])([CH3])[CH3]` the mutagenic call (Test System: AMES SALMONELLA TYPHIMURIUM, Strain/Indicator: TA98, Metabolic Activation: HAMSTER, LIVER, S-9, AROCLOR 1254, Method: PREINCUBATION) was “inactive; negative”, the mutagenic call [3] was “inactive; negative” and the mutagenic call (Test System: AMES SALMONELLA TYPHIMURIUM, Strain/Indicator: TA98, Metabolic Activation: RAT, LIVER, S-9, AROCLOR 1254, Method: PREINCUBATION) was “inactive; negative”. For the same molecule, the mutagenic call (Test System: AMES SALMONELLA TYPHIMURIUM, Strain/Indicator: TA100, Metabolic Activation: HAMSTER, LIVER, S-9, AROCLOR 1254, Method: PREINCUBATION) was “inactive; negative”, the mutagenic call (Test System: AMES SALMONELLA TYPHIMURIUM, Strain/Indicator: TA100, Metabolic Activation: NONE, Method: PREINCUBATION) was “inactive; negative” and the mutagenic call (Test System: AMES SALMONELLA TYPHIMURIUM, Strain/Indicator: TA100, Metabolic Activation: RAT, LIVER, S-9, AROCLOR 1254, Method: PREINCUBATION) was “inactive; negative”. The mutagenic call (Test System: AMES SALMONELLA TYPHIMURIUM, Strain/Indicator: TA1535, Metabolic Activation: HAMSTER, LIVER, S-9, AROCLOR 1254, Method: PREINCUBATION) was “inactive; negative”, the mutagenic call (Test System: AMES SALMONELLA TYPHIMURIUM, Strain/Indicator: TA1535, Metabolic Activation: NONE, Method: PREINCUBATION) was “inactive; negative” and the mutagenic call (Test System: AMES SALMONELLA TYPHIMURIUM, Strain/Indicator: TA1535, Metabolic Activation: RAT, LIVER, S-9, AROCLOR 1254, Method: PREINCUBATION) was “inactive; negative”. For the same molecule, the mutagenic call (Test System: AMES SALMONELLA TYPHIMURIUM, Strain/Indicator: TA1537, Metabolic Activation: HAMSTER, LIVER, S-9, AROCLOR 1254, Method: PREINCUBATION) was “inactive; negative”, the mutagenic call (Test System: AMES SALMONELLA TYPHIMURIUM, Strain/Indicator: TA1537, Metabolic Activation: NONE, Method: PREINCUBATION) was “inactive; negative” and the mutagenic call (Test System: AMES SALMONELLA TYPHIMURIUM, Strain/Indicator: TA1537, Metabolic Activation: RAT, LIVER, S-9, AROCLOR 1254, Method: PREINCUBATION) was “inactive; negative”.
With `Cc1ccc(-c2nc3n(c2[N+](=O)[O-])CCS3)cc1` the mutagenic call [1] was “inactive; negative”, the mutagenic call [2] was “active; positive” and the mutagenic call (Test System: AMES SALMONELLA TYPHIMURIUM, Strain/Indicator: TA1535, Metabolic Activation: NONE, Method: STANDARD PLATE) was “inactive; negative”. For the same molecule, the mutagenic call (Test System: AMES SALMONELLA TYPHIMURIUM, Strain/Indicator: TA1537, Metabolic Activation: NONE, Method: STANDARD PLATE) was “inactive; negative” and the mutagenic call (Test System: AMES SALMONELLA TYPHIMURIUM, Strain/Indicator: TA1538, Metabolic Activation: NONE, Method: STANDARD PLATE) was “inactive; negative”.
For `Nc1c2ccccc2cc2ccccc12`, the mutagenic call (Test System: AMES SALMONELLA TYPHIMURIUM, Strain/Indicator: TA98, Metabolic Activation: RAT, LIVER, S-9, AROCLOR 1254 (2%), Method: STANDARD PLATE) was “active; positive”, the mutagenic call (Test System: AMES SALMONELLA TYPHIMURIUM, Strain/Indicator: TA98, Metabolic Activation: RAT, LIVER, S-9, AROCLOR 1254 (4%), Method: STANDARD PLATE) was “active; positive” and the mutagenic call (Test System: AMES SALMONELLA TYPHIMURIUM, Strain/Indicator: TA100, Metabolic Activation: RAT, LIVER, S-9, AROCLOR 1254 (2%), Method: STANDARD PLATE) was “active; positive”. The mutagenic call (Test System: AMES SALMONELLA TYPHIMURIUM, Strain/Indicator: TA1535, Metabolic Activation: RAT, LIVER, S-9, AROCLOR 1254 (2%), Method: STANDARD PLATE) was “inactive; negative” and the mutagenic call (Test System: AMES SALMONELLA TYPHIMURIUM, Strain/Indicator: TA1537, Metabolic Activation: RAT, LIVER, S-9, AROCLOR 1254 (2%), Method: STANDARD PLATE) was “active; positive”.
`COc1cc(-c2ccc(N/N=C3\C=Cc4c(S(=O)(=O)O)cc(S(=O)(=O)O)c(N)c4C3=O)c(OC)c2)ccc1N/N=C1/C=Cc2c(S(=O)(=O)O)cc(S(=O)(=O)O)c(N)c2C1=O` was tested, and the mutagenic call (Test System: AMES SALMONELLA TYPHIMURIUM, Strain/Indicator: TA98, Metabolic Activation: HAMSTER, LIVER, S-9, Method: PREINCUBATION (PRIVAL METHOD)) was “active; positive”, the mutagenic call (Test System: Ames Salmonella typhimurium, Strain/Indicator: TA98, Metabolic Activation: Rat, Liver, S-9, Sodium phenobarbitone, Method: Preincubation) was “inactive; negative, test conducted under both aerobic and anaerobic conditions” and the mutagenic call (Test System: Ames Salmonella typhimurium, Strain/Indicator: TA1538, Metabolic Activation: Rat, Liver, S-9, Sodium phenobarbitone, Method: Preincubation) was “inactive; negative, test conducted under both aerobic and anaerobic conditions”.
In the case of `Cc1nc2ccc(NCCN(C)C)c3c(=O)c4cc(O)ccc4n1c23`, the mutagenic call (Test System: CHINESE HAMSTER V-79, Strain/Indicator: V-79 (HGPRT)/6-THIOGUANINE, Metabolic Activation: NONE) is reported as “active; positive”.
